“And” between values parts separate entries of the source, which are not always exact repeats. Equal values may be shown once. Where a name gives a salt, the structure may show the parent alone. Read-outs that look alike come from different tables or passages of the source.
Key:
[1] = test system: MKN-74 cells; assay: apoptosis by QFM, Hoechst-33258 staining; assay type: cell-based, human
Procedure: Apoptosis was measured by two different methods: (i) Quantitative fluorescent microscopy (QFM) of nuclear changes induced by apoptosis, as determined by bisbenzimide trihydrochloride (Hoescht-33258) staining of nuclear chromatin (15), and (ii) a terminal deoxynucleotidyl transferase (TdT) assay that labels the 3′-OH ends of DNA fragments produced in apoptotic cells (16). […] MMC was diluted in water. A stock safingol solution was constituted in DMSO and was subsequently diluted at least 1:100 in media for all experiments. […] For QFM determinations, the cells were fixed in 3% paraformaldehyde and incubated at room temperature for 10 minutes. The fixative was removed and the cells were washed with 1×PBS, resuspended in 20 μl 1×PBS containing only 8 μg/ml of bisbenzimide trihydrochloride (Hoechst #33258), and incubated at room temperature for 15 minutes. Aliquots of the cells (10 μl) were placed on glass slides coated with 3-amino-propyl-triethoxysilane, and duplicate samples of 500 cells each were counted and scored for the incidence of apoptotic chromatin condensation using an Olympus BH-2 fluorescence microscope equipped with a BH2-DM2U2UV Dich. Mirror Cube filter (Olympus, Lake Success, N.Y.). For the TdT assays, the ApopTag Kit (Oncor, Gaithersburg, Md.) was used. This method employs a fluoresceinated antidigoxigenin antibody directed against nucleotides of digoxigenin-11-dUTP (d-dUTP) which are catalytically added to the 3-ends fragmented DNA by TdT. Briefly, 1–2×10^6 cells were washed and fixed with 1% paraformaldehyde. The fixed cells were incubated in a reaction mixture containing TdT and d-dUTP for 30 minutes at 37° C. Stop/wash buffer was added, and the cells were resuspended in 100 μl of fluorescinated anti-digoxigenin antibody for 30 minutes at room temperature. The cells were then washed with 0.1% Triton X-100 and counterstained with propidium iodide (PI) solution. Green (d-dUTP labeled DNA strand breaks) and red (PI staining for total DNA content) fluorescence of individual cells were measured on a FACScan flow cytometer (Becton Dickinson, San Jose, Calif.). The resulting bivariate plots enabled the detection of apoptotic events within the cell cycle. The R1 cursor was set using the control specimen to define normal levels of green fluorescence (i.e., basal levels of apoptosis). Cells with fluorescence above the R, cursor were considered apoptotic. The data from 10,000 cells were collected and analyzed using CellFit and LYSYS software (Becton Dickinson).
Apoptosis was again measured by QFM staining.
(§1) Induction of apoptosis was estimated by counting the frequency of condensed nuclear chromatin with Hoechst-33258 stain in duplicate samples of 400 cells.
For these studies apoptosis was measured by quantitative fluorescent microscopy (QFM) determination with bisbenzimide trihydrochloride stain (Hoescht-33258) for condensed nuclear chromatin characteristic of apoptotic cells.
For QFM determinations 500 cells were counted and scored for the incidence of apoptotic chromatin changes under an Olympus BH-2 fluorescence microscope in duplicate samples, ±SD, using a BH2-DM2U2UV Dich. Mirror Cube filter.
To study this further applicants elected to examine five bis-indolylmaleimides with various potencies against PKC. […] The induction of apoptosis was estimated by counting the frequency of condensed nuclear chromatin with Hoechst-33258 stain in duplicate samples of 400 cells.

[2] = test system: MDA-MB-468 breast cancer cells; assay: apoptosis by QFM, Hoechst-33258 staining; assay type: cell-based, human; conditions: MDA-MB-468; flavopiridol, MMC
Procedure: PRELIMINARY STUDIES. […] Apoptosis was measured by quantitative fluorescent microscopy (QFM) of nuclear changes induced by apoptosis, as determined by bisbenzimide trihydrochloride (Hoescht-33258) staining of condensed nuclear chromatin (24). For the QFM duplicate samples of 500 cells each were counted and scored for the incidence of apoptotic chromatin condensation using an Olympus BH-2 fluorescence microscope.
Applicants also tested the PKC inhibitor UCN-01 (27) which is currently in phase I clinical trial at the NCI. In contrast to safingol, which inhibits PKC by binding to its regulatory domain, UCN-01 inhibits PKC at its catalytic domain. Therefore, assessment of the effect of UCN-01 on inducing apoptosis in combination with MMC on MDA-MB-468 was also performed. The QFM method to quantitate apoptosis was again used. The conditions tested were identical to those described above for safingol except UCN-01 (1 μM) was substituted for safingol in all the conditions.
as §1

[3] = test system: PKC obtained from MKN-74 gastric cancer cells; assay: PKC purified from MKN-74 cells, phosphorylation of myelin basic protein; assay type: biochemical, human; conditions: for PKC activity: no drug 25,000
From the text: For these experiments MKN-74 cells were homogenized and PKC was purified on a DEAE cellulose column as described (37). […] A control sample was also run with the PKC pseudosubstrate, which functions as an established PKC inhibitor. The results, as shown in the table below, are expressed as the absolute counts of [^32P]ATP incorporated into myelin basic protein/minute of assay time: […]

[4] = test system: 183CLL; assay: trypan blue exclusion and alamar blue assays; assay type: cell-based; conditions: FLAVO 24 hours
From the text: (§2) Over-expression of bcl-2 has been associated with resistance to chemotherapy and inhibition of apoptosis.

[5] = test system: MKN-74 cells; assay: trypan blue exclusion and alamar blue assays; assay type: cell-based; conditions: Homo sapiens, FLAVO 24 hours
From the text: as §2

[6] = test system: OV432; assay: trypan blue exclusion and alamar blue assays; assay type: cell-based; conditions: FLAVO 24 hours
From the text: as §2

[7] = test system: bcl-2 in OV432 cells; assay: bcl-2 expression by Western immunoblotting; assay type: cell-based; conditions: FLAVO concentrations as low as 50 nM
From the text: as §2

[8] = test system: bcl-2 in MKN-74 cells; assay: bcl-2 expression by Western immunoblotting; assay type: cell-based, human; conditions: 300 nM of FLAVO; co-treatment with MMC 50 μM
From the text: as §2

[9] = test system: PKC; conditions: flavopiridol; read-out: IC50, PKC enzyme activity; cited from earlier work
[10] = biological target: cyclic-adenosine monophosphate-dependent protein kinase A; conditions: flavopiridol; read-out: IC50, cyclic AMP-dependent protein kinase; cited from earlier work
[11] = test system: SUDHL-4 lymphoma cells; conditions: cited from earlier work
[12] = test system: PC-3 prostate cancer cells; conditions: cited from earlier work
[13] = test system: A549, HCT 8, T986, MCF-7 and HL-60 human cancer cell lines; conditions: cited from earlier work
[14] = test system: MDA-MB-468 cells; conditions: cited from earlier work
[15] = Fischer 344 rats, cited from earlier work
[16] = second phase I trial; cited from earlier work
[17] = cited from earlier work
[18] = dog, in vivo, iv, 2.6 mg/kg; cited from earlier work

CN1CC[C@H](c2c(O)cc(O)c3c(=O)cc(-c4ccccc4Cl)oc23)[C@H](O)C1 (relative stereo) [flavopiridol, 2-(2-chlorophenyl)-5,7-dihydroxy-8-(cis-3-hydroxy-1-methyl-4-piperidinyl)-4H-1-benzopyran-4-one, hydrochloride]
Percent Apoptosis ([1]; 24 h continuous (single drug) or concomitant, flavopiridol 300 nM, MMC 1 μg/ml, paclitaxel 50 μM, carboplatin, hydrochloride): 12%±1% and 11.6%±1%
% APOPTOSIS ([1]; 24 hours, FLAVO 300 nM, Taxol 50 μM, MMC 1 μg/ml, single drugs or in combination): 17%
percent induction of apoptosis, Concomitant ([1]; 24 hours, FLAVO 300 nM, Taxol 50 μM, MMC 1 μg/ml, single drugs or together): 17% ± 2%
induction of apoptosis (QFM) ([1]; FIG. 7, 24 hours, flavopiridol 300 nM, MMC 50 μM (as printed b127)): 17%±2%
induction of apoptosis (condensed chromatin, 400 cells) ([1]; MKN-74, 24 hours, Flavo 300 nM, MMC 5 μg/ml): 17% ± 2
percentage of cells undergoing apoptosis [2]: 29%±2%
Percent inhibition of PKC activity ([3]; Flavopiridol 34 nM): 84%
PKC activity ([3]; Flavopiridol 34 nM): 4,000 counts of [^32P]ATP incorporated into myelin basic protein/minute
Percent inhibition of PKC activity ([3]; Flavopiridol 340 nM): 87%
PKC activity ([3]; Flavopiridol 340 nM): 3,300 counts of [^32P]ATP incorporated into myelin basic protein/minute
IC50 [4]: 400 nM
IC50 [5]: > 800 nM
IC50 [6]: 100 nM
bcl-2 expression [7]: complete loss of bcl-2
bcl-2 expression [8]: failed to induce any decrease in bcl-2
IC50 [9]: 6000 nM
IC50 [10]: 145000 nM
concentration inducing apoptosis [11]: 100 nM
concentration required to produce a similar effect (apoptosis) [12]: at least 1000 nM
concentration range inhibiting colony formation [13]: 250 to 300 nM
cytotoxicity ([14]; exposure for 24 hours): essentially no cytotoxicity
cell proliferation ([14]; prolonged exposure for 72 hours): inhibits cell proliferation
Maximal plasma drug concentration (Cmax) [15]: 9500 ng/mL
Plasma clearance [15]: 58 mL/min/kg
elimination half-life (T1/2) [15]: 1.87 h
Cmax ([15]; read-out: Maximal plasma drug concentration (Cmax)): 21.7 µM
t1/2 [16]: 14 h
MTD ([17]; one phase I study, 72 hour infusion every 2 weeks): 50 mg/m^2/day
MTD ([17]; the other phase I trial): 56 mg/m^2/day
tolerability [18]: tolerated without evidence of significant toxicity
